We go through 21 compounds from BindingDB's records for doi:10.1016/s0960-894x(02)00988-5 (Merck Research Laboratories, 2003).

The nature of one experiment: Inhibition over 48 hr of BAL strain HIV infrction of HeLa Magi cells expressing CCR5.
As a reminder, the IC50 is the midpoint of a concentration-inhibition curve. On to `C=CCN(c1ccc(C(F)(F)F)cn1)C1CCN(C[C@H]2CN(C(=O)C3CCCCC3)C[C@@H]2c2ccccc2)CC1` [((3S,4S)-3-{4-[Allyl-(5-trifluoromethyl-pyridin-2-yl)-amino]-piperidin-1-ylmethyl}-4-phenyl-pyrrolidin-1-yl)-cyclohexyl-methanone], for which the midpoint of inhibition, the IC50, lay at 37 nM.
On the same count and under the same terms, the result for `CCCN(c1nccc(OC)n1)C1CCN(C[C@H]2CN([C@H](CC3CCC3)C(=O)O)C[C@@H]2c2cccc(F)c2)CC1` [(R)-3-Cyclobutyl-2-((3S,4S)-3-(3-fluoro-phenyl)-4-{4-[(4-methoxy-pyrimidin-2-yl)-propyl-amino]-piperidin-1-ylmethyl}-pyrrolidin-1-yl)-propionic acid] reads 100 nM.
Still for that read-out and setting: the figure for `CCCN(c1ncc(F)cn1)C1CCN(C[C@H]2CN([C@H](CC3CCC3)C(=O)O)C[C@@H]2c2cccc(F)c2)CC1` [(R)-3-Cyclobutyl-2-((3S,4S)-3-(3-fluoro-phenyl)-4-{4-[(5-fluoro-pyrimidin-2-yl)-propyl-amino]-piperidin-1-ylmethyl}-pyrrolidin-1-yl)-propionic acid] is 33 nM.
Compound `CCCN(c1nccc(C(F)(F)F)n1)C1CCN(C[C@H]2CN([C@H](CC3CCC3)C(=O)O)C[C@@H]2c2cccc(F)c2)CC1` [(R)-3-Cyclobutyl-2-((3S,4S)-3-(3-fluoro-phenyl)-4-{4-[propyl-(4-trifluoromethyl-pyrimidin-2-yl)-amino]-piperidin-1-ylmethyl}-pyrrolidin-1-yl)-propionic acid] registered an IC50 of 450 nM.
The same measure, in the same setting: the result for `CCCN(c1ncc(C(F)(F)F)cn1)C1CCN(C[C@H]2CN([C@H](CC3CCC3)C(=O)O)C[C@@H]2c2cccc(F)c2)CC1` [(R)-3-Cyclobutyl-2-((3S,4S)-3-(3-fluoro-phenyl)-4-{4-[propyl-(5-trifluoromethyl-pyrimidin-2-yl)-amino]-piperidin-1-ylmethyl}-pyrrolidin-1-yl)-propionic acid] reads 100 nM; that for `O=C(O)[C@@H](CC1CCC1)N1C[C@H](CN2CCC(N(CC3CC3)c3ncccn3)CC2)[C@@H](c2cccc(F)c2)C1` [(R)-3-Cyclobutyl-2-[(3S,4S)-3-[4-(cyclopropylmethyl-pyrimidin-2-yl-amino)-piperidin-1-ylmethyl]-4-(3-fluoro-phenyl)-pyrrolidin-1-yl]-propionic acid], 11 nM.
Same read-out and setting: the figure for `CCN(c1ncccn1)C1CCN(C[C@H]2CN([C@H](CC3CCC3)C(=O)O)C[C@@H]2c2cccc(F)c2)CC1` [(R)-3-Cyclobutyl-2-[(3S,4S)-3-[4-(ethyl-pyrimidin-2-yl-amino)-piperidin-1-ylmethyl]-4-(3-fluoro-phenyl)-pyrrolidin-1-yl]-propionic acid] is 100 nM.
In turn, `CCCN(c1cncnc1)C1CCN(C[C@H]2CN([C@H](CC3CCC3)C(=O)O)C[C@@H]2c2cccc(F)c2)CC1` [(R)-3-Cyclobutyl-2-{(3S,4S)-3-(3-fluoro-phenyl)-4-[4-(propyl-pyrimidin-5-yl-amino)-piperidin-1-ylmethyl]-pyrrolidin-1-yl}-propionic acid] registered a 50% inhibitory concentration (IC50) of 11 nM.
Compound `CCCN(c1ncccn1)C1CCN(C[C@H]2CN([C@H](CC3CCC3)C(=O)O)C[C@@H]2c2cccc(F)c2)CC1` [(R)-3-cyclobutyl-2-((3S,4S)-3-(3-fluorophenyl)-4-((4-(propyl(pyrimidin-2-yl)amino)piperidin-1-yl)methyl)pyrrolidin-1-yl)propanoic acid] yielded an IC50 of 11 nM.
The same measure, in the same setting: the figure for `CCCN(c1ncccn1)C1CCN(C[C@H]2CN([C@@H](C(=O)O)C3CCCCC3)C[C@@H]2c2cccc(F)c2)CC1` [(R)-Cyclohexyl-{(3S,4S)-3-(3-fluoro-phenyl)-4-[4-(propyl-pyrimidin-2-yl-amino)-piperidin-1-ylmethyl]-pyrrolidin-1-yl}-acetic acid] is 33 nM.
Consider `CCCN(c1cccnc1)C1CCN(C[C@H]2CN([C@@H](C(=O)O)C3CCCCC3)C[C@@H]2c2ccccc2)CC1` [(R)-Cyclohexyl-{(3S,4S)-3-phenyl-4-[4-(propyl-pyridin-3-yl-amino)-piperidin-1-ylmethyl]-pyrrolidin-1-yl}-acetic acid], for which it took 33 nM to reach half-maximal inhibition (IC50).
Turning to `C=CCN(c1ccccn1)C1CCN(C[C@H]2CN(C(=O)C3CCCCC3)C[C@@H]2c2ccccc2)CC1` [{(3S,4S)-3-[4-(Allyl-pyridin-2-yl-amino)-piperidin-1-ylmethyl]-4-phenyl-pyrrolidin-1-yl}-cyclohexyl-methanone], the half-maximal inhibitory concentration (IC50) was 11 nM.
Same read-out and setting: the result for `C=CCN(c1cccnc1)C1CCN(C[C@H]2CN(C(=O)C3CCCCC3)C[C@@H]2c2ccccc2)CC1` [{(3S,4S)-3-[4-(Allyl-pyridin-3-yl-amino)-piperidin-1-ylmethyl]-4-phenyl-pyrrolidin-1-yl}-cyclohexyl-methanone] reads 12 nM.

Test in the next experiment: as above
The source holds these as a separate data set.
As for `CCCN(c1ccccn1)C1CCN(C[C@H]2CN(C(=O)c3ccccc3Cl)C[C@@H]2c2ccccc2)CC1` [(2-Chloro-phenyl)-{(3S,4S)-3-phenyl-4-[4-(propyl-pyridin-2-yl-amino)-piperidin-1-ylmethyl]-pyrrolidin-1-yl}-methanone], the IC50 worked out at 300 nM.
Still for that read-out and setting: the figure for `CCCN(c1ncccn1)C1CCN(C[C@H]2CN([C@@H](C(=O)O)C3CCCCC3)C[C@@H]2c2ccccc2)CC1` [(R)-2-cyclohexyl-2-((3S,4S)-3-phenyl-4-((4-(propyl(pyrimidin-2-yl)amino)piperidin-1-yl)methyl)pyrrolidin-1-yl)acetic acid] is 33 nM; for `CCCN(c1ccncn1)C1CCN(C[C@H]2CN([C@H](CC3CCC3)C(=O)O)C[C@@H]2c2cccc(F)c2)CC1` [(R)-3-Cyclobutyl-2-{(3S,4S)-3-(3-fluoro-phenyl)-4-[4-(propyl-pyrimidin-4-yl-amino)-piperidin-1-ylmethyl]-pyrrolidin-1-yl}-propionic acid] it is 33 nM; for `CCCN(c1ccccn1)C1CCN(C[C@H]2CN([C@@H](C(=O)O)C3CCCCC3)C[C@@H]2c2ccccc2)CC1` [(R)-Cyclohexyl-{(3S,4S)-3-phenyl-4-[4-(propyl-pyridin-2-yl-amino)-piperidin-1-ylmethyl]-pyrrolidin-1-yl}-acetic acid] it is 100 nM.
On the same count and under the same terms, the figure for `O=C(C1CCCCC1)N1C[C@H](CN2CCC(N(CC3CC3)c3ccccn3)CC2)[C@@H](c2ccccc2)C1` [Cyclohexyl-{(3S,4S)-3-[4-(cyclopropylmethyl-pyridin-2-yl-amino)-piperidin-1-ylmethyl]-4-phenyl-pyrrolidin-1-yl}-methanone] is 33 nM.
`CCCN(c1ccccn1)C1CCN(C[C@H]2CN(C(=O)C3CCC3)C[C@@H]2c2ccccc2)CC1` [cyclobutyl((3S,4S)-3-phenyl-4-((4-(propyl(pyridin-2-yl)amino)piperidin-1-yl)methyl)pyrrolidin-1-yl)methanone]: the midpoint of inhibition, the IC50, lay at 300 nM.
Still for that read-out and setting: the result for `CCCN(c1ccccn1)C1CCN(C[C@H]2CN(C(=O)C3CCCCC3)C[C@@H]2c2ccccc2)CC1` [cyclohexyl((3S,4S)-3-phenyl-4-((4-(propyl(pyridin-2-yl)amino)piperidin-1-yl)methyl)pyrrolidin-1-yl)methanone] reads 100 nM; that for `CCCN(c1ccccn1)C1CCN(C[C@H]2CN(C(=O)N3CCCC3)C[C@@H]2c2ccccc2)CC1` [{(3S,4S)-3-Phenyl-4-[4-(propyl-pyridin-2-yl-amino)-piperidin-1-ylmethyl]-pyrrolidin-1-yl}-pyrrolidin-1-yl-methanone], 300 nM.
